Test results: ChEMBL document CHEMBL5528053, “Discovery of Novel Isoquinoline Analogues as Dual Tubulin Polymerization/V-ATPase Inhibitors with Immunogenic Cell Death Induction” (J Med Chem, 2024)
The source made the active and inactive calls. The rule behind the calls is not given here.

Key:
[1] = system: PC-3; experiment: Induction of apoptosis in human PC-3 cells assessed as increase in Cl-PARP level at 50 to 200 nM incubated for 24 hrs by Western blot analysis; type: functional, cell-based; details: dose 50-200 nM
[2] = system: PC-3; experiment: Induction of apoptosis in human PC-3 cells assessed as downregulation of bcl-2 level at 50 to 200 nM incubated for 24 hrs by Western blot analysis; type: functional, cell-based; details: dose 50-200 nM
[3] = system: PC-3; experiment: Inhibition of V-ATPase activity in human PC-3 cells at 50 nM measured after 24 hrs by colorimetric assay relative to control; type: cell-based
[4] = Antitumor immunity against mouse RM1 cells homografted in C57BL/6 mouse model assessed as increase in tumor infiltrating helper T lymphocytes at 5 mg/kg, iv administered every two days for 14 days by flow cytometry analysis (reference value: 6.59%); type: functional; details: time 14 day
[5] = system: PC-3; experiment: Inhibition of autophagy in human PC-3 cells assessed as increase in number of autophagosomes at 50 to 200 uM measured after 3 hrs by immunofluorescence imaging based analysis; type: functional, cell-based; details: dose 50-200 µM
[6] = system: PC-3; experiment: Antiproliferative activity against human PC-3 cells assessed as inhibition of cell growth after 72 hrs by MTT assay; type: functional, cell-based; details: PC-3, 72 h
[7] = system: PC-3; experiment: Induction of cell cycle arrest in human PC-3 cells assessed as accumulation of cells at G2/M phase at 200 nM incubated for 24 hrs by flow cytometry analysis (reference value: 19.5%); type: functional
[8] = Antitumor immunity against mouse RM1 cells homografted in C57BL/6 mouse model assessed as increase in tumor infiltrating lymphocytes at 10 mg/kg, iv administered every two days for 14 days by flow cytometry analysis (reference value: 5.26%); type: functional; details: time 14 day
[9] = target: Tubulin beta (Homo sapiens) (UniProt P68371+Q9H4B7+Q13509+P04350+Q3ZCM7+P07437+Q13885+Q9BVA1+Q9BUF5+A6NNZ2); experiment: Binding affinity to beta-tubulin colchicine binding site in human PC-3 cells assessed as inhibition of EBI-beta-tubulin adduct band formation preincubated for 2 hrs followed by EBI addition measured after 1.5 hrs by EBI competition based Western blotting analysis; type: cell-based; details: dose 1-100 µM, time 3.5 hrs
[10] = target: Tubulin (Homo sapiens) (UniProt P68371+Q9H4B7+P0DPH7+P68366+Q13509+Q71U36+P04350+Q3ZCM7+P07437+P68363+Q9BQE3+Q6PEY2+Q13885+Q9BVA1+Q9BUF5); experiment: (§1) Inhibition of tubulin polymerization (unknown origin) measured every 60 secs for 60 mins by microplate reader based analysis; type: protein-complex assay; details: dose 1.25-40 µM
[11] = target: Tubulin; experiment: as §1; type: protein-complex assay, Homo sapiens
[12] = system: PC-3; experiment: Induction of apoptosis in human PC-3 cells assessed as early apoptotic cells at 50 nM measured after 24 hrs by annexin V-FITC and PI staining based flow cytometry analysis (reference value: 1.03%); type: functional
[13] = system: PC-3; experiment: Induction of apoptosis in human PC-3 cells assessed as upregulation of cleaved caspase-3 level at 50 to 200 nM incubated for 24 hrs by Western blot analysis; type: functional, cell-based; details: dose 50-200 nM
[14] = system: PC-3; experiment: Induction of cell cycle arrest in human PC-3 cells assessed as accumulation of cells at S phase at 50 nM incubated for 24 hrs by flow cytometry analysis (reference value: 31.3%); type: functional
[15] = system: PC-3; experiment: Induction of apoptosis in human PC-3 cells assessed as increase in p-bim-EL level at 50 to 200 nM incubated for 24 hrs by Western blot analysis; type: functional, cell-based; details: dose 50-200 nM
[16] = Antitumor activity against mouse RM1 cells homografted in C57BL/6 mouse model assessed as tumor growth inhibition at 10 mg/kg, iv administered every two days for 14 days by vernier caliper based analysis relative to control; type: functional; details: RM1, 336 h, time 14 day, read-out: TGI
[17] = Toxicity in ICR mouse assessed as effect on LDH level at 10 mg/kg, ip measured for 14 days; type: organism-based; details: in vivo, 336 h, time 14 day
[18] = Antitumor activity against mouse RM1 cells xenografted in immunocompetent […] mouse model assessed as tumor growth inhibition at 10 mg/kg, iv measured every two days for 14 days relative to control; type: functional; details: RM1, 336 h, time 14 day, read-out: TGI
[19] = system: PC-3; experiment: Upregulation of detyrosinated-alpha tubulin expression in human PC-3 cells incubated for 24 hrs by Western blot analysis; type: functional, cell-based; details: dose 50-200 nM
[20] = system: PC-3; experiment: Induction of immunogenic cell death in human PC-3 cells assessed as decrease in HMGB1 content in tumor cells at 50 to 200 nM; type: functional, cell-based; details: dose 50-200 nM
[21] = system: PC-3; experiment: Induction of apoptosis in human PC-3 cells assessed as necrotic cells at 200 nM measured after 24 hrs by annexin V-FITC and PI staining based flow cytometry analysis (reference value: 6.01%); type: functional
[22] = system: PC-3; experiment: Upregulation of intracellular eIF2alpha expression at […] residues in human PC-3 cells incubated for 24 hrs by DAPI staining based analysis; type: functional, cell-based; details: dose 50-200 nM
[23] = system: PC-3; experiment: Inhibition of V-ATPase activity in human PC-3 cells at 200 nM measured after 24 hrs by colorimetric assay relative to control; type: cell-based
[24] = system: RM1; experiment: Antitumor immunity against mouse RM1 cells homografted in C57BL/6 mouse model assessed as increase in tumor infiltrating CD3+CD8+T cells (CTLs) in spleen at 5 to 10 mg/kg, iv administered every two days for 14 days by flow cytometry analysis; type: functional, organism-based; details: dose 5-10 mg/kg, time 14.0 day
[25] = Toxicity in ICR mouse assessed as effect on kidney at 10 mg/kg, ip measured for 14 days by H and E staining based analysis; type: organism-based; details: in vivo, 336 h, time 14 day
[26] = system: A549; experiment: Antiproliferative activity against human A549 cells assessed as inhibition of cell growth after 72 hrs by MTT assay; type: functional, cell-based; details: A549, 72 h
[27] = system: PC-3; experiment: Induction of endoplasmic reticulum (ER) stress in human PC-3 cells assessed as upregulation of eIF2 alpha phosphorylation at […] residues at 50 to 200 nM measured after 24 hrs by Western blot analysis; type: functional, cell-based; details: dose 50-200 nM
[28] = system: PC-3; experiment: Induction of apoptosis in human PC-3 cells assessed as increase in ADP-ribose level at 50 to 200 nM incubated for 24 hrs by Western blot analysis; type: functional, cell-based; details: dose 50-200 nM
[29] = system: PC-3; experiment: Inhibition of V-ATPase activity in human PC-3 cells at 400 nM measured after 24 hrs by colorimetric assay relative to control; type: cell-based
[30] = Antitumor immunity against mouse RM1 cells homografted in C57BL/6 mouse model assessed as increase in tumor infiltrating lymphocytes at 5 mg/kg, iv administered every two days for 14 days by flow cytometry analysis (reference value: 5.26%); type: functional; details: time 14 day
[31] = system: PC-3; experiment: Induction of apoptosis in human PC-3 cells assessed as late apoptotic cells at 50 nM measured after 24 hrs by annexin V-FITC and PI staining based flow cytometry analysis (reference value: 2.37%); type: functional
[32] = system: PC-3; experiment: Inhibition of V-ATPase activity in human PC-3 cells at 100 nM measured after 24 hrs by colorimetric assay relative to control; type: cell-based
[33] = Antitumor immunity against mouse RM1 cells homografted in C57BL/6 mouse model assessed as increase in tumor infiltrating CD3+CD8+T cells (CTLs) at 10 mg/kg, iv administered every two days for 14 days by flow cytometry analysis (reference value: 0.89%); type: functional; details: time 14 day
[34] = Anticancer activity against mouse RM1 cells assessed as increase in mean fluorescence intensity at 400 nM measured after 24 hrs by flow cytometry analysis (reference value: 7.40+/-3.96 ); type: functional

With `COc1cc(-c2nc(C(N)=O)cc3cc4c(cc23)OCCO4)cc(Br)c1OC` the Activity [1] was “Active”, the Activity [2] was “Active” and the inhibition [3] was 15.8%. For the same compound, the Activity [4] was 10.9%, the inhibition [5] was “Active” and the IC50 [6] was 60 nM. For the same compound, the Activity [7] was 65.8%, the Activity [8] was 8.03% and the Activity [9] was “Dose-Dependent Effect”. For the same compound, the inhibition [10] was “Dose-Dependent Effect”, the IC50 [11] was 6330 nM and the Activity [12] was 1.93%. For the same compound, the Activity [13] was “Active”, the Activity [14] was 29.3% and the Activity [15] was “Active”. The inhibition in vivo at 10 mg/kg [16] was 70.2%, the Activity [17] was “Non-Toxic” and the inhibition in vivo at 10 mg/kg [18] was 70.2%. The Activity [19] was “Dose-Dependent Effect”, the Activity [20] was “Active” and the Activity [21] was 6.91%. The Activity [22] was “Dose-Dependent Effect”, the inhibition [23] was 36.7% and the Activity [24] was “Active”. For the same compound, the Activity [25] was “Non-Toxic”, the IC50 [26] was 90 nM and the Activity [27] was “Active”. For the same compound, the Activity [28] was “Active”, the inhibition [29] was 60% and the Activity [30] was 7.01%. It also gave an Activity [31] of 3.51%, an inhibition [32] of 26.2% and an Activity [33] of 2.27%. The Flu intensity [34] was 151.3.
